Results on 1 substance are retold here after patent US20120083522A1, “MODULATION OF INFLAMMATORY RESPONSES BY FACTOR XI” (Isis Pharmaceuitcals, inc., priority 2009, published 2012).

In the oligonucleotide strings, read from the 5' end, every base follows the letter of its sugar. An asterisk marks phosphorothioate; unmarked linkages are phosphodiester. Other units and linkages are bracketed, terminal groups are in braces. A string of capitals states the bases alone. e = 2'-O-(2-methoxyethyl) (MOE); [5mC] = 5-methylcytosine; d = 2'-deoxy (DNA)

One series is described as follows: Cynomolgus monkeys: body and organ weights (Example 29). It counts as in vivo. The note with it: escalating doses 5, 10, 25 mg/kg s.c., day 29. On the procedure: (§1) Groups, each consisting of two male and three female monkeys, were injected subcutaneously with ISIS 416838, ISIS 416850, ISIS 416858, ISIS 416864, or ISIS 417002 in escalating doses. Antisense oligonucleotide was administered to the monkeys at 5 mg/kg three times per a week for week 1; 5 mg/kg twice per week for weeks 2 and 3; 10 mg/kg three times per week for week 4; 10 mg/kg twice per week for weeks 5 and 6; 25 mg/kg three times per week for week 7; and 25 mg/kg twice per week for weeks 8, 9, 10, 11, and 12. One control group, consisting of two male and three female monkeys, was injected subcutaneously with PBS according to the same dosing regimen. An additional experimental group, consisting of two male and three female monkeys, was injected subcutaneously with ISIS 416850 in a chronic, lower dose regimen. Antisense oligonucleotide was administered to the monkeys at 5 mg/kg three times per week for week 1; 5 mg/kg twice per week for week 2 and 3; 10 mg/kg three times per week for week 4; and 10 mg/kg twice per week for weeks 5 to 12. Body weights were measured weekly. Blood samples were collected 14 days and 5 days before the start of treatment and subsequently once per week for Factor XI protein activity analysis in plasma and measurement of various hematologic factors. On day 85, the monkeys were euthanized by exsanguination while under deep anesthesia, and organs harvested for further analysis.
Body weights were taken once weekly throughout the dosing regimen. […] Organ weights were taken after the animals were euthanized and livers, kidneys and spleens were harvested and weighed. […] The ISIS oligonucleotide, ISIS 416850, given with the chronic dose regimen is distinguished from the other oligonucleotides with an asterisk (*).
“ISIS 416864: gapmer of Table 8 (antisense eG*eG*e[5mC]*eA*eG*d[5mC]*dG*dG*dA*d[5mC]*dG*dG*d[5mC]*dA*dT*eT*eG*eG*eT*eG)” displayed a Body weight of 2863 g.

The same series, now with this note: escalating doses 5, 10, 25 mg/kg s.c., day 36.
Substance “ISIS 416864: gapmer of Table 8 (antisense eG*eG*e[5mC]*eA*eG*d[5mC]*dG*dG*dA*d[5mC]*dG*dG*d[5mC]*dA*dT*eT*eG*eG*eT*eG)” came in with a Body weight of 3327 g.

The same series, now with this note: escalating doses 5, 10, 25 mg/kg s.c., day 43.
As to “ISIS 416864: gapmer of Table 8 (antisense eG*eG*e[5mC]*eA*eG*d[5mC]*dG*dG*dA*d[5mC]*dG*dG*d[5mC]*dA*dT*eT*eG*eG*eT*eG)”, the Body weight was found to be 3355 g.

The series is the same for the next values; noted with them: escalating doses 5, 10, 25 mg/kg s.c., day 50.
For the substance “ISIS 416864: gapmer of Table 8 (antisense eG*eG*e[5mC]*eA*eG*d[5mC]*dG*dG*dA*d[5mC]*dG*dG*d[5mC]*dA*dT*eT*eG*eG*eT*eG)”, the Body weight is recorded as 3408 g.

Staying with this series, now noted: escalating doses 5, 10, 25 mg/kg s.c., day 57.
In the case of “ISIS 416864: gapmer of Table 8 (antisense eG*eG*e[5mC]*eA*eG*d[5mC]*dG*dG*dA*d[5mC]*dG*dG*d[5mC]*dA*dT*eT*eG*eG*eT*eG)”, the Body weight is on record as 3387 g.

The series is the same for the next values; noted with them: escalating doses 5, 10, 25 mg/kg s.c., day 64.
“ISIS 416864: gapmer of Table 8 (antisense eG*eG*e[5mC]*eA*eG*d[5mC]*dG*dG*dA*d[5mC]*dG*dG*d[5mC]*dA*dT*eT*eG*eG*eT*eG)” had a Body weight of 3384 g.

Still in this series, the particulars now being: escalating doses 5, 10, 25 mg/kg s.c., day 71.
In the case of “ISIS 416864: gapmer of Table 8 (antisense eG*eG*e[5mC]*eA*eG*d[5mC]*dG*dG*dA*d[5mC]*dG*dG*d[5mC]*dA*dT*eT*eG*eG*eT*eG)”, the Body weight was 2942 g.

Staying with this series, now noted: escalating doses 5, 10, 25 mg/kg s.c., day 78.
As for “ISIS 416864: gapmer of Table 8 (antisense eG*eG*e[5mC]*eA*eG*d[5mC]*dG*dG*dA*d[5mC]*dG*dG*d[5mC]*dA*dT*eT*eG*eG*eT*eG)”, the Body weight worked out at 2822 g.

Another series in a line: Cynomolgus monkeys: hematology assays (Example 29). Type of series: in vivo. The note with it: day 8. The method, then:
as §1
The ISIS oligonucleotide, ISIS 416850, given with the chronic dose regimen is distinguished from the other oligonucleotides with an asterisk (*).
Turning to “ISIS 416864: gapmer of Table 8 (antisense eG*eG*e[5mC]*eA*eG*d[5mC]*dG*dG*dA*d[5mC]*dG*dG*d[5mC]*dA*dT*eT*eG*eG*eT*eG)”, the platelet count came out at 438000 µL⁻¹.

The series is the same for the next values; noted with them: day 15.
Regarding “ISIS 416864: gapmer of Table 8 (antisense eG*eG*e[5mC]*eA*eG*d[5mC]*dG*dG*dA*d[5mC]*dG*dG*d[5mC]*dA*dT*eT*eG*eG*eT*eG)”, the platelet count was 439000 µL⁻¹.

The same series, now with this note: day 22.
“ISIS 416864: gapmer of Table 8 (antisense eG*eG*e[5mC]*eA*eG*d[5mC]*dG*dG*dA*d[5mC]*dG*dG*d[5mC]*dA*dT*eT*eG*eG*eT*eG)”: the platelet count amounted to 364000 µL⁻¹.

The same series, now with this note: day 29.
For “ISIS 416864: gapmer of Table 8 (antisense eG*eG*e[5mC]*eA*eG*d[5mC]*dG*dG*dA*d[5mC]*dG*dG*d[5mC]*dA*dT*eT*eG*eG*eT*eG)”, the platelet count came out at 397000 µL⁻¹.

Still in this series, the particulars now being: day 36.
In the case of “ISIS 416864: gapmer of Table 8 (antisense eG*eG*e[5mC]*eA*eG*d[5mC]*dG*dG*dA*d[5mC]*dG*dG*d[5mC]*dA*dT*eT*eG*eG*eT*eG)”, the platelet count was 428000 µL⁻¹.

The series is the same for the next values; noted with them: day 43.
“ISIS 416864: gapmer of Table 8 (antisense eG*eG*e[5mC]*eA*eG*d[5mC]*dG*dG*dA*d[5mC]*dG*dG*d[5mC]*dA*dT*eT*eG*eG*eT*eG)” came in with a platelet count of 351000 µL⁻¹.

The same series, now with this note: day 50.
Take “ISIS 416864: gapmer of Table 8 (antisense eG*eG*e[5mC]*eA*eG*d[5mC]*dG*dG*dA*d[5mC]*dG*dG*d[5mC]*dA*dT*eT*eG*eG*eT*eG)”: the platelet count was 419000 µL⁻¹.

Still in this series, the particulars now being: day 57.
The substance “ISIS 416864: gapmer of Table 8 (antisense eG*eG*e[5mC]*eA*eG*d[5mC]*dG*dG*dA*d[5mC]*dG*dG*d[5mC]*dA*dT*eT*eG*eG*eT*eG)” showed a platelet count of 409000 µL⁻¹.

Still in this series, the particulars now being: day 64.
On to “ISIS 416864: gapmer of Table 8 (antisense eG*eG*e[5mC]*eA*eG*d[5mC]*dG*dG*dA*d[5mC]*dG*dG*d[5mC]*dA*dT*eT*eG*eG*eT*eG)”, for which the platelet count came to 383000 µL⁻¹.

Still in this series, the particulars now being: day 71.
For “ISIS 416864: gapmer of Table 8 (antisense eG*eG*e[5mC]*eA*eG*d[5mC]*dG*dG*dA*d[5mC]*dG*dG*d[5mC]*dA*dT*eT*eG*eG*eT*eG)”, the platelet count amounted to 394000 µL⁻¹.

Staying with this series, now noted: day 78.
Substance “ISIS 416864: gapmer of Table 8 (antisense eG*eG*e[5mC]*eA*eG*d[5mC]*dG*dG*dA*d[5mC]*dG*dG*d[5mC]*dA*dT*eT*eG*eG*eT*eG)” yielded a platelet count of 366000 µL⁻¹.

Still in this series, the particulars now being: day 85.
Consider “ISIS 416864: gapmer of Table 8 (antisense eG*eG*e[5mC]*eA*eG*d[5mC]*dG*dG*dA*d[5mC]*dG*dG*d[5mC]*dA*dT*eT*eG*eG*eT*eG)”, for which the platelet count was 387000 µL⁻¹.

Staying with this series, now noted: day −5.
The substance “ISIS 416864: gapmer of Table 8 (antisense eG*eG*e[5mC]*eA*eG*d[5mC]*dG*dG*dA*d[5mC]*dG*dG*d[5mC]*dA*dT*eT*eG*eG*eT*eG)” had a platelet count of 456000 µL⁻¹.

The same series, now with this note: day −14.
“ISIS 416864: gapmer of Table 8 (antisense eG*eG*e[5mC]*eA*eG*d[5mC]*dG*dG*dA*d[5mC]*dG*dG*d[5mC]*dA*dT*eT*eG*eG*eT*eG)” registered a platelet count of 434000 µL⁻¹.
